Source: patent US20060189679A1, “C10 cyclopropyl ester substituted taxane compositions” (priority 2005, published 2006)
Where “and” joins values, the source holds several entries; their conditions need not be identical. Identical values can stand only once. Like-named read-outs stand apart in the source and are kept apart here.

What was measured:
[1] = tested on: PC-3 prostate carcinoma cells; experiment: In vitro cytotoxic activity (MTT, 72 hr); assay type: cell-based, human; conditions: unit not given (dilutions in nM), read-out: In Vitro Antitumor Activity (IC50)
[2] = tested on: HCT-116 colon carcinoma cells; experiment: In vitro cytotoxic activity (MTT, 72 hr); assay type: cell-based, human; conditions: unit not given (dilutions in nM), read-out: In Vitro Antitumor Activity (IC50)
[3] = tested on: PANC-1 pancreatic adenocarcinoma cells; experiment: In vitro cytotoxic activity (MTT, 72 hr); assay type: cell-based, human; conditions: unit not given (dilutions in nM), read-out: In Vitro Antitumor Activity (IC50)
[4] = tested on: HT-29 colon carcinoma cells; experiment: In vitro cytotoxic activity (MTT, 72 hr); assay type: cell-based, human; conditions: unit not given (dilutions in nM), read-out: In Vitro Antitumor Activity (IC50)
[5] = tested on: LnCaP prostate carcinoma cells; experiment: In vitro cytotoxic activity (MTT, 72 hr); assay type: cell-based, human; conditions: unit not given (dilutions in nM), read-out: In Vitro Antitumor Activity (IC50)
[6] = tested on: 1A9-PTX22 paclitaxel resistant ovarian carcinoma cells (tubulin mutation); experiment: In vitro cytotoxic activity (MTT, 72 hr); assay type: cell-based, human; conditions: for IC50: 1A9-PTX22, ovarian, tubulin mutation, MTT 72 hr, unit not given (dilutions in nM), read-out: In Vitro Antitumor Activity (IC50)
[7] = tested on: HCT116 human colon carcinoma cells; experiment: Cell cycle and apoptotic analyses (propidium iodide flow cytometry); assay type: cell-based; conditions: HCT-116 cells, 24 hr exposure
[8] = Toxicity profile on oral and IV dosing in rats; conditions: dosed both orally and IV
[9] = tested on: DLD-1 resistant colon carcinoma cells (overexpresses p-glycoprotein); experiment: In vitro cytotoxic activity (MTT, 72 hr); assay type: cell-based, human; conditions: DLD-1, colon, p-glycoprotein resistance, unit not given (dilutions in nM), read-out: In Vitro Antitumor Activity (IC50)
[10] = tested on: 786-0 human renal carcinoma xenografts; conditions: for Median survival / Median survival Ratio: iv
[11] = tested on: 1A9 ovarian carcinoma cells; experiment: In vitro cytotoxic activity (MTT, 72 hr); assay type: cell-based, human; conditions: unit not given (dilutions in nM), read-out: In Vitro Antitumor Activity (IC50)
[12] = tested on: SW480 human colon carcinoma xenografts; conditions: mouse, in vivo; for controlling tumor growth compared to the lower doses of compound 3102: iv
[13] = tested on: 1A9-PTX10 paclitaxel resistant ovarian carcinoma cells (tubulin mutation); experiment: In vitro cytotoxic activity (MTT, 72 hr); assay type: cell-based, human; conditions: for IC50: 1A9-PTX10, ovarian, tubulin mutation, MTT 72 hr, unit not given (dilutions in nM), read-out: In Vitro Antitumor Activity (IC50)
[14] = tested on: DLD-1 multi-drug resistant human colon carcinoma xenografts; conditions: for MDS to 2.0 g ± SEM (n): DLD1-e07 study; for antitumor activity: DLD e07, optimum dose, route (IV) and schedule; for # Death NTR (Non-Treatment Related) / # Death TR (Treatment Related): mouse, in vivo
[15] = Homo sapiens, Ovarian carcinoma cell
[16] = IV QWK × 3 25 mg/kg vs 5% EC in Saline PO Q4D × 4
[17] = IV QWK × 3 30 mg/kg vs 5% EC in Saline PO Q4D × 4

Compound: CC(=O)O[C@@]12CO[C@@H]1C[C@H](O)[C@@]1(C)C(=O)[C@H](OC(=O)C3CC3)C3=C(C)[C@@H](OC(=O)[C@H](O)[C@@H](NC(=O)OCC(C)C)c4ccco4)C[C@@](O)([C@@H](OC(=O)c4ccccc4)C12)C3(C)C (stereo partly drawn) [Compound 3102]
- IC50 ([1]; Homo sapiens): 1.8 nM
- IC50 ([2]; Homo sapiens): 0.9 nM
- IC50 ([3]; Homo sapiens): 1.8 nM
- IC50 ([4]; Homo sapiens): 1.2 nM
- IC50 ([5]; Homo sapiens): 2.6 nM
- potency compared to that of paclitaxel ([6]; 1A9-PTX22 (sentence covers 1A9-PTX10 and 1A9-PTX22)): 4 to 8 fold
- IC50 ([6]; Homo sapiens, 1A9/ptx-22): 8.5 nM
- Apoptotic (percentage of cells in sub G1 peak) ([7]; 10 nM): 24.4%
- G1 (percentage of cells) ([7]; 10 nM): 20.1%
- G2/M (percentage of cells) ([7]; 10 nM): 27.3%
- S (percentage of cells) ([7]; 10 nM): 23.9%
- Apoptotic (percentage of cells in sub G1 peak) ([7]; 100 nM): 11.7%
- G1 (percentage of cells) ([7]; 100 nM): 7.0%
- G2/M (percentage of cells) ([7]; 100 nM): 74.0%
- S (percentage of cells) ([7]; 100 nM): 7.1%
- toxicity profile [8]: favorable toxicity profile
- IC50 ([9]; Homo sapiens): 1.9 nM
- Logrank Test Chi square ([10]; IV Q4D × 4 30 mg/kg vs 5% EC in Saline PO Q4D × 4): 5.459
- Logrank Test Chi square ([10]; PO Q4D × 4 50 mg/kg vs 5% EC in Saline PO Q4D × 4): 1.972
- Logrank Test Chi square ([10]; PO Q4D × 4 70 mg/kg vs 5% EC in Saline PO Q4D × 4): 0.2502
- Logrank Test Chi square ([10]; PO Q4D × 4 80 mg/kg vs 5% EC in Saline PO Q4D × 4): 5.234
- IC50 [11, 15]: 1.6 nM
- treatment related death [12]: One
- potency compared to that of paclitaxel ([13]; 1A9-PTX10 (sentence covers 1A9-PTX10 and 1A9-PTX22)): 4 to 8 fold
- IC50 ([13]; Homo sapiens, 1A9/ptx-10): 5.2 nM
- MDS to 2.0 g ± SEM (n) ([14]; 30 mg/kg IV Q4D × 4): 45.3 ± 4.6
- MDS to 2.0 g ± SEM (n) ([14]; 50 mg/kg PO Q4D × 4): 47.1 ± 3.9
- MDS to 2.0 g ± SEM (n) ([14]; 70 mg/kg PO Q4D × 4): 46.1 ± 3.5
- MDS to 2.0 g ± SEM (n) ([14]; 80 mg/kg PO Q4D × 4): 53.8±

Compound: CC(=O)O[C@H]1C(=O)[C@@]2(C)[C@H]([C@H](OC(=O)c3ccccc3)[C@]3(O)C[C@H](OC(=O)[C@H](O)[C@@H](NC(=O)c4ccccc4)c4ccccc4)C(C)=C1C3(C)C)[C@]1(OC(C)=O)CO[C@@H]1C[C@@H]2O [Paclitaxel, paclitaxel]
- IC50 ([1]; Homo sapiens): 4.1 nM
- IC50 ([3]; Homo sapiens): 4.2 nM
- IC50 ([4]; Homo sapiens): 2.6 nM
- IC50 ([5]; Homo sapiens): 3.1 nM
- IC50 ([6]; Homo sapiens, 1A9/ptx-22): > 30 nM
- Apoptotic (percentage of cells in sub G1 peak) ([7]; 10 nM): 24.0%
- G1 (percentage of cells) ([7]; 10 nM): 31.1%
- G2/M (percentage of cells) ([7]; 10 nM): 17.8%
- S (percentage of cells) ([7]; 10 nM): 25.0%
- Apoptotic (percentage of cells in sub G1 peak) ([7]; 100 nM): 15.3%
- G1 (percentage of cells) ([7]; 100 nM): 7.0%
- G2/M (percentage of cells) ([7]; 100 nM): 67.2%
- S (percentage of cells) ([7]; 100 nM): 9.4%
- IC50 ([9]; Homo sapiens): > 10 nM
- slowing of tumor growth vs control (statistical analysis, words) ([10]; 786-0 e89, optimum dose, route (IV) and schedule): did not appear to significantly slow the growth of tumors compared to control
- Logrank Test Chi square ([10]; IV QOD × 5 30 mg/kg vs 5% EC in Saline PO Q4D × 4): 3.414
- # Death NTR (Non-Treatment Related) ([10]; mouse, in vivo): 0
- # Death TR (Treatment Related) ([10]; mouse, in vivo): 0
- Day of Max. % BW Loss ([10]; mouse, in vivo): Day 13
- MDS to 2.0 g ± SEM (n) ([10]; mouse, in vivo): 40.0 ± 6.6
- Max. % BW Loss ([10]; mouse, in vivo): −7.6%;
- Are the survival curves sig different? ([10]; mouse, in vivo, 30 mg/kg): No
- Median survival ([10]; mouse, in vivo, 30 mg/kg): 51.15
- IC50 [11, 15]: 2.5 nM
- # Death NTR (Non-Treatment Related) [12]: 0
- # Death TR (Treatment Related) [12]: 0
- MDS to 2.0 g ± SEM (n) [12]: 26.2 ± 3.0
- controlling tumor growth compared to the lower doses of compound 3102 [12]: as effective or slightly less effective in controlling tumor growth
- IC50 ([13]; Homo sapiens, 1A9/ptx-10): > 40 nM
- MDS to 2.0 g ± SEM (n) ([14]; 30 mg/kg IV QOD × 5): 40.2 ± 4.7
- antitumor activity [14]: failed to demonstrate significant antitumor activity against DLD-1 tumors
- # Death NTR (Non-Treatment Related) [14]: 0
- # Death TR (Treatment Related) ([14]; nude): 0

Compound: docetaxel
- IC50 [1]: 2.8 nM
- IC50 [2]: 0.9 nM
- IC50 [3]: 2 nM
- IC50 [4]: 1.2 nM
- IC50 [5]: 1.9 nM
- IC50 [6]: 8.5 nM
- Apoptotic (percentage of cells in sub G1 peak) ([7]; 10 nM): 44.1%
- G1 (percentage of cells) ([7]; 10 nM): 10.4%
- G2/M (percentage of cells) ([7]; 10 nM): 17.1%
- S (percentage of cells) ([7]; 10 nM): 25.4%
- Apoptotic (percentage of cells in sub G1 peak) ([7]; 100 nM): 14.4%
- G1 (percentage of cells) ([7]; 100 nM): 4.0%
- G2/M (percentage of cells) ([7]; 100 nM): 68.0%
- S (percentage of cells) ([7]; 100 nM): 11.6%
- IC50 [9]: 9.2 nM
- Hazard Ratio [10, 16]: 2.967
- Logrank Test Chi square [10, 16]: 4.859
- Hazard Ratio [10, 17]: 3.39
- Logrank Test Chi square [10, 17]: 5.271
- # Death TR (Treatment Related) ([10]; mouse, in vivo): 0
- MDS to 2.0 g ± SEM (n) ([10]; mouse, in vivo): 52.1 ± 4.7 and 49.3 ± 4.3
- slowing of tumor growth vs vehicle control (statistical analysis, words) ([10]; mouse, in vivo): able to slow 786-0 tumor growth compared to the vehicle control
- Are the survival curves sig different? ([10]; mouse, in vivo, 25 mg/kg): Yes
- Are the survival curves sig different? ([10]; mouse, in vivo, 30 mg/kg): Yes
- Median survival ([10]; mouse, in vivo, 25 mg/kg): 52.7
- Median survival Ratio ([10]; mouse, in vivo, 25 mg/kg): 0.704
- Median survival ([10]; mouse, in vivo, 30 mg/kg): 52
- Median survival Ratio ([10]; mouse, in vivo, 30 mg/kg): 0.7135
- IC50 [11]: 1.8 nM
- MDS to 2.0 g ± SEM (n) [12]: 29.0 ± 7.8 and 32.4 ± 4.1
- non-treatment related death [12]: one
- non-treatment related deaths [12]: two
- treatment related death [12]: one
- controlling tumor growth compared to the lower doses of compound 3102 [12]: as effective or slightly less effective in controlling tumor growth
- IC50 [13]: 7 nM
- MDS to 2.0 g ± SEM (n) ([14]; 25 mg/kg IV Q7D × 3): 35.0 ± 2.3
- MDS to 2.0 g ± SEM (n) ([14]; 30 mg/kg IV Q7D × 3): 37.6 ± 6.5
- antitumor activity [14]: failed to demonstrate significant antitumor activity against DLD-1 tumors
- # Death NTR (Non-Treatment Related) [14]: 0
- # Death TR (Treatment Related) [14]: 0
